Measured values: ChEMBL document CHEMBL1153651, “Synthesis and biology of the rigidified glutamate analogue, trans-2-carboxyazetidine-3-acetic acid (t-CAA)” (Bioorg Med Chem Lett, 1996)

Columns and labels:
[1] = target: Glutamate receptor ionotropic, AMPA (Rattus norvegicus, UniProt P19490+P19491+P19492+P19493); test: Compound was tested in vitro for binding affinity against Ionotropic glutamate receptor AMPA, using [3H]AMPA as the radioligand in rat cerebral cortical membranes.; format: cell membranes
Glutamate receptor 1 = Glutamate receptor 1 (Rattus norvegicus, UniProt P19490); test: Compound was tested in vitro for binding affinity against Ionotropic glutamate receptor AMPA, using [3H]TCP as the radioligand.
[2] = target: Glutamate receptor ionotropic, kainate 3 (Rattus norvegicus, UniProt P42264); test: Compound was tested in vitro for binding affinity against Ionotropic glutamate receptor kainate using [3H]kainate as the radioligand.
Glutamate receptor ionotropic, kainate 3, sequence (P42264 whole entry): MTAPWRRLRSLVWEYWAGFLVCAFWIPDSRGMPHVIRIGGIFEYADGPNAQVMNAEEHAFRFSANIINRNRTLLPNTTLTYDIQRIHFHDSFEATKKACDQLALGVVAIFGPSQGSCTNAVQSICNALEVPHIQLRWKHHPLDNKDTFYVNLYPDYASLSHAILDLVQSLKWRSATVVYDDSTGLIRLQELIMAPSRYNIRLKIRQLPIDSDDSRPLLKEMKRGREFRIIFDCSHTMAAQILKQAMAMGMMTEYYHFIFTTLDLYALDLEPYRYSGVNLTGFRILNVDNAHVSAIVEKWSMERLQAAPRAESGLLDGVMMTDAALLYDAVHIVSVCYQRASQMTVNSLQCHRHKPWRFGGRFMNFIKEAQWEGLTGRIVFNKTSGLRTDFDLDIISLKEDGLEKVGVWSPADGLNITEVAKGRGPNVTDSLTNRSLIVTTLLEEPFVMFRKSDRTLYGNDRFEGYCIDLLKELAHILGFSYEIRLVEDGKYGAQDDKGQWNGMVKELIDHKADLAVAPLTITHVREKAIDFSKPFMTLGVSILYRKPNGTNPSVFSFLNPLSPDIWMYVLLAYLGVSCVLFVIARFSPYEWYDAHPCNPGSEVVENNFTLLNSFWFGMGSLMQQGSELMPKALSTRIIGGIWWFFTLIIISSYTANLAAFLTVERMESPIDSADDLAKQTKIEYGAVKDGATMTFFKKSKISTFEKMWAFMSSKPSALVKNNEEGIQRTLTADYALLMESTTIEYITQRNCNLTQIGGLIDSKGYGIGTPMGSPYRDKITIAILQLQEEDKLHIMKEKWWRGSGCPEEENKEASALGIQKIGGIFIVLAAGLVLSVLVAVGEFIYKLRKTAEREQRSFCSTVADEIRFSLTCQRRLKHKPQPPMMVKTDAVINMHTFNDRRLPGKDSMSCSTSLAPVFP

Glutamate NMDA receptor = test: Compound was tested in vitro for binding affinity against NMDA receptor, using [3H]CPP as the radioligand in rat cerebral cortical membranes.; format: cell membranes
Rattus norvegicus [3] = species: Rattus norvegicus; test: Compound was tested in vitro for binding affinity against calcium chloride dependent glutamate uptake site, using [3H]L-AP4 as the radioligand in rat cortical membranes.; format: functional
Rattus norvegicus [4] = species: Rattus norvegicus; test: Compound was tested in vitro for binding affinity against sodium dependent [3H]glu-uptake into rat cortical synaptosomes, using [3H]-glutamate as the radioligand.; format: functional; settings: Brain
[5] = target: Metabotropic glutamate receptor 4 (Rattus norvegicus, UniProt P31423); test: Compound was tested in vitro for binding affinity against mGluR4a metabotropic glutamate receptor, using [3H]L-AP4 as the radioligand.
Metabotropic glutamate receptor 4, sequence (P31423 whole entry): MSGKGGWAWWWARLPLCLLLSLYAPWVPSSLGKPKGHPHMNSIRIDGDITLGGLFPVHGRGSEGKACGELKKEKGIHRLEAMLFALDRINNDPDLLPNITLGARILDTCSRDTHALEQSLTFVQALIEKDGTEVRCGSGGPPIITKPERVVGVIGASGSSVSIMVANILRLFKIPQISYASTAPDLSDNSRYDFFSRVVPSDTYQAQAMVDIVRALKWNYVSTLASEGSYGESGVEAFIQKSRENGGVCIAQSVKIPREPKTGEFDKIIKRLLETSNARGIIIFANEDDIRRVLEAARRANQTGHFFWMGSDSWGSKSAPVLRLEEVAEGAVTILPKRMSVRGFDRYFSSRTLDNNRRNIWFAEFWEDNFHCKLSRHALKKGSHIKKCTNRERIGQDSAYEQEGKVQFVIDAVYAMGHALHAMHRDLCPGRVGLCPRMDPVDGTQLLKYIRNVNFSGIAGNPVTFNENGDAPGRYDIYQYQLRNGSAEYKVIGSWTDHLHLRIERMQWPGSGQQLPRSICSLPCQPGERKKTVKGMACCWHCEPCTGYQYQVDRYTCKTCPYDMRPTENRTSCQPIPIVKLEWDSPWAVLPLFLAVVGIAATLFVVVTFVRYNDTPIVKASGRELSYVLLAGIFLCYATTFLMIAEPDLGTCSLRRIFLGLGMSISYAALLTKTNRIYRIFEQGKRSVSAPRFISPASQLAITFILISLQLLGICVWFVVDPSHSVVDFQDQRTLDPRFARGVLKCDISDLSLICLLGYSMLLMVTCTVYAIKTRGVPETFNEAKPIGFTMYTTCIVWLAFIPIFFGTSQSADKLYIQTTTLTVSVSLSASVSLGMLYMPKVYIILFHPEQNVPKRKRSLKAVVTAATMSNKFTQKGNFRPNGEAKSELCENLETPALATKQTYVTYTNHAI

[6] = target: T1, Metabotropic glutamate receptor 2 (Homo sapiens, UniProt Q14416); test: Compound was tested for its agonist activity against mGluR 2 receptor in CHO cells; format: functional, cell-based; settings: Cricetulus griseus
Target sequence in this assay (Q14416 19-872 limits assumed): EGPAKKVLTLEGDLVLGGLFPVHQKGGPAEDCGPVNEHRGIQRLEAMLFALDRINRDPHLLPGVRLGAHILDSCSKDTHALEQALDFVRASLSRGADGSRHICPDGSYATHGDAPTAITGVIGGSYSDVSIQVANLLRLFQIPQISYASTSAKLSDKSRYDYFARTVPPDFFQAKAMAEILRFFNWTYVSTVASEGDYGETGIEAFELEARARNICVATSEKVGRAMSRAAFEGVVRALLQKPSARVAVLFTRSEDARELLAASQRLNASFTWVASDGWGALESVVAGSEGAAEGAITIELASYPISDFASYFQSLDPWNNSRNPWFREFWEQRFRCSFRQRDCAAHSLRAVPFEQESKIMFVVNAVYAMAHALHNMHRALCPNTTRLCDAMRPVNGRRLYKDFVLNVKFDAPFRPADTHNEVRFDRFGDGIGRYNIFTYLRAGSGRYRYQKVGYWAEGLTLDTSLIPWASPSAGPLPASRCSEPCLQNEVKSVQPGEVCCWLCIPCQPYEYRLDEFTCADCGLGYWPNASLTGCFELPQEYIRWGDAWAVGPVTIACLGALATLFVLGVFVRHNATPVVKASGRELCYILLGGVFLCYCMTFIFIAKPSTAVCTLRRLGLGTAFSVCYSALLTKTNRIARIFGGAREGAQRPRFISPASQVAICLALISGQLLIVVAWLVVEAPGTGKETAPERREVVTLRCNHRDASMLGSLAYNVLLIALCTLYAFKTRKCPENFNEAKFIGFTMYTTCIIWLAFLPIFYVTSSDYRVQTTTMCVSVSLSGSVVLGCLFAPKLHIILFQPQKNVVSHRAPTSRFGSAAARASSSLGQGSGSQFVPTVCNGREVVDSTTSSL

[7] = target: T2, Metabotropic glutamate receptor 5 (Homo sapiens, UniProt P41594); test: Compound was tested for its agonist activity against mGluR 5a receptor in CHO cells.; format: functional, cell-based, Cricetulus griseus
[8] = target: T2, Metabotropic glutamate receptor 5; test: Compound was tested for its agonist activity against mGluR 5a receptor in CHO cells; format: functional, cell-based; settings: Cricetulus griseus
[9] = target: T3, Metabotropic glutamate receptor 6 (Homo sapiens, UniProt O15303); test: Compound was tested for its antagonist activity against mGluR 6 receptor in CHO cells.; format: functional, cell-based, Cricetulus griseus
T3 sequence (O15303 whole entry): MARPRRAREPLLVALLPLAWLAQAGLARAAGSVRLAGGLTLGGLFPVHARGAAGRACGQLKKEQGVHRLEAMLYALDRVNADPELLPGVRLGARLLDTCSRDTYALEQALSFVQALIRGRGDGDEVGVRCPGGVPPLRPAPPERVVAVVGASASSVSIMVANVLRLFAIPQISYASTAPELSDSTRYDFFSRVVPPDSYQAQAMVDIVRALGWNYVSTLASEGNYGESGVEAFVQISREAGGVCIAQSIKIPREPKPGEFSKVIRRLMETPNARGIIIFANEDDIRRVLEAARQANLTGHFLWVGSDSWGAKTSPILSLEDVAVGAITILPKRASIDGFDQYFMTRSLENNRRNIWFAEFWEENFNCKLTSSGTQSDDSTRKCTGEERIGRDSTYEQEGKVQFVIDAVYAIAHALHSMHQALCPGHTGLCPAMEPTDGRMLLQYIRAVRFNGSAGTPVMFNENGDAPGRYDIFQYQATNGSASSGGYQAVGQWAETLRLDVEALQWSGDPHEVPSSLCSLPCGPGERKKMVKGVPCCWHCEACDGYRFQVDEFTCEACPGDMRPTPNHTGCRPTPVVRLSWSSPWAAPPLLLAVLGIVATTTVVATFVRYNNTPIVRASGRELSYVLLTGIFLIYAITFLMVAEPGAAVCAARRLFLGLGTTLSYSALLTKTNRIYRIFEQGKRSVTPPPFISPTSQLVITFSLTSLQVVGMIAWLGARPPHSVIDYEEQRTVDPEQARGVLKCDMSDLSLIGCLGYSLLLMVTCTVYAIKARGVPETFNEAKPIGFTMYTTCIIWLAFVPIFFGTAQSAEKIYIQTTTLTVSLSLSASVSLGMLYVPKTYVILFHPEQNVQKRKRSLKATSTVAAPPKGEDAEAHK

[10] = target: Metabotropic glutamate receptor 1 (Rattus norvegicus, UniProt P23385); test: Compound was tested in vitro for binding affinity against mGluR1a metabotropic glutamate receptor, using [3H]glutamate as the radioligand.
[11] = target: T1, Metabotropic glutamate receptor 2; test: Compound was tested for its agonist activity against mGluR 2 receptor in CHO cells.; format: functional, cell-based, Cricetulus griseus
Target sequence in this assay (Q14416 whole entry): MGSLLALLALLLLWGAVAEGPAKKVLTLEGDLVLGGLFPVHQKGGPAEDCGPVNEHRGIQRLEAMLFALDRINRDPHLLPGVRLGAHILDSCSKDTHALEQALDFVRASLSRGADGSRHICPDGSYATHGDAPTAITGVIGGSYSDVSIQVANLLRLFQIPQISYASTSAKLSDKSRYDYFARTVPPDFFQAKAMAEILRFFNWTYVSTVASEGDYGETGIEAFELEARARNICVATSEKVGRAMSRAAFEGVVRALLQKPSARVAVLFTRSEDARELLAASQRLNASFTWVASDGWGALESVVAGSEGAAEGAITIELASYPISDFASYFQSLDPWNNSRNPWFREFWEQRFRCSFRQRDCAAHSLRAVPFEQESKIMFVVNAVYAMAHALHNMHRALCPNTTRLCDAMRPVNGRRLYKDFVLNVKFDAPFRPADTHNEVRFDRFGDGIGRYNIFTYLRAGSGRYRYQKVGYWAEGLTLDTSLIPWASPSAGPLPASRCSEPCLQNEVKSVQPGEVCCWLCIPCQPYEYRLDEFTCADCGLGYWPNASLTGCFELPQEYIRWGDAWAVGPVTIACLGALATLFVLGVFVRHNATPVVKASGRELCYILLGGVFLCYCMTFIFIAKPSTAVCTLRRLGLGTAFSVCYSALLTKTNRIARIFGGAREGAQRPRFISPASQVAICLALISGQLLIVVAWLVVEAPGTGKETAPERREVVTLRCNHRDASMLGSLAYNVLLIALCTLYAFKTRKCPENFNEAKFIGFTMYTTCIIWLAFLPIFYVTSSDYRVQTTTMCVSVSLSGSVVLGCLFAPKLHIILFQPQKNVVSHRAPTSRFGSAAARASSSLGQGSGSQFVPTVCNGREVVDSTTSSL

[12] = target: T1, Metabotropic glutamate receptor 2; test: Compound was tested for its antagonist activity against mGluR 2 receptor in CHO cells.; format: functional, cell-based, Cricetulus griseus
Target sequence in this assay (Q14416 whole entry): as above

[13] = target: Metabotropic glutamate receptor 1 (Homo sapiens, UniProt Q13255); test: Compound was tested for its agonist activity against mGluR1a receptor in CHO cells.; format: functional, cell-based, Cricetulus griseus
[14] = target: T3, Metabotropic glutamate receptor 6; test: Compound was tested for its agonist activity against mGluR 6 receptor in CHO cells.; format: functional, cell-based, Cricetulus griseus
[15] = target: T3, Metabotropic glutamate receptor 6; test: Compound was tested for its agonist activity against mGluR 6 receptor in CHO cells; format: functional, cell-based; settings: Cricetulus griseus

Work on `O=C(O)C[C@H]1CN[C@@H]1C(=O)O` yielded an IC50 [1] of 13 µM, an IC50 (Glutamate receptor 1) greater than 660 µM and an IC50 [2] of 0.7 µM. The IC50 (Glutamate NMDA receptor) was 49 µM, the IC50 (Rattus norvegicus [3]) was 33 µM and the IC50 (Rattus norvegicus [4]) was 5 µM. For the same compound, the IC50 [5] was 315 µM, the Max response [6] was 0% and the inhibition ([6]; concentration not given here) was 40%. It also gave an EC50 [7] of 105 µM, a Max response [8] of 95% and an IC50 [9] greater than 300 µM. For the same compound, the IC50 [10] was 12 µM, the EC50 [11] was greater than 600 µM and the IC50 [12] was greater than 600 µM. It also gave an EC50 [13] of 210 µM, an IC50 [14] greater than 300 µM and a Max response [15] of 17%. The inhibition ([15]; concentration not given here) was 0%.
